Reference: patent publication US12312621B2, “Reprogramming urokinase into an antibody-recruiting anticancer agent” (YALE UNIVERSITY, priority 2011, dated 2025)

Assay: Storage stability of stock solution in water
Type: physicochemical
Procedure: Synthesis of guanidinium 1 Into a flask were added crude peptide 1v (0.120 mmol, 1 equiv), and a mixture of TFA, TiPS, and water (38:1:1, 2 mL, 0.06 M, producing a homogeneous solution). The mixture was stirred in the dark (1.5 h) and diluted with toluene (3 mL). Volatiles were removed under reduced pressure (2×toluene azeotrope). The crude mixture was dissolved in water (2 mL) and washed with EtOAc (2×2 mL). The aqueous phase was purified by semi-preparative RP-HPLC (C18 column, water+0.1% TFA with 15-35% MeCN over 30 min, product isomers elute at 14.5 and 15.4 min) to yield pure guanidinium 1 (58 mg, 0.049 mmol, 41% yield) as a mixture (approximately 1:1) of regioisomers at fluorescein and as a yellow solid. The regioisomeric ratio was measured by ^1H NMR. ^1H NMR signals were assigned by ^1H-^1H COSY.
Synthesis of guanidinium 2 Into a flask were added crude peptide 2g (0.150 mmol, 1 equiv), and a mixture of TFA, TiPS, and water (38:1:1, 2 mL, 0.07 M). The mixture was stirred (1.5 h) and diluted with toluene (3 mL). Volatiles were removed under reduced pressure (2×toluene azeotrope). The crude mixture was dissolved in water (2 mL) and washed with EtOAc (2×2 mL). […]

N=C(N)NCCC[C@H](NC(=O)CNC(=O)[C@@H](N)CCC(=O)NCCCOCCOCCOCCCNc1ccc([N+](=O)[O-])cc1[N+](=O)[O-])C(=O)CCl [compound 2]
stability of stock solution: stable for at least several months
